From patent US4067982A, “Aryl-substituted piperazinyl-alkylamino-uracils, -uracil ethers and -uracil thioethers as therapeutics” (priority 1976, dated 1978)

What was measured:
[1] = test system: blood pressure of the narcotized cat; test: Lowering of the blood pressure, narcotized cat; assay type: in vivo; settings: Felis catus, iv; for ED30: 30% lowering; for ED50: 50% lowering
[2] = test system: blood pressure of the narcotized rat; test: Lowering of the blood pressure, narcotized rat; assay type: in vivo; parameters: unit not given here; settings: 30% lowering
[3] = test system: systolic and diastolic blood pressure; test: Clinical test, blood pressure in patients; assay type: in vivo, human
Method: (§1) Clinical tests were conducted with the 1,3-dimethyl-4-(γ-[4(o-methoxyphenyl)-piperazinyl-(1)]-propylamino)- uracil on two female and three male patients, with doses of 10, 20, 40 and 60 mg orally administered.
Attached Diagrams 1 and 2 show the changes of the blood pressure under the effect of various doses of 1,3-dimethyl-4-(γ-[4-(o-methoxyphenyl)-piperazinyl-(1)]-propylamino)-uracil. […] Diagram 2shows the changes of the diastolic blood pressure with the same doses of the uracil compound at an average starting diastolic blood pressure (RRd) of 95.3 mm Hg plotted against the dose of the uracil compound.

[4] = test system: mouse; test: Analgesic effect, thermal stimulation of the tail of the mouse; assay type: in vivo; settings: oral, 25% retardation, read-out: Retardation of the defense reaction upon thermal stimulation of the tail of the mouse by 25%
Description: The analgesic effect was thereby determined as the delay in the reaction upon thermal stimulation of the tail of the mouse.

[5] = Solubility; assay type: physicochemical
[6] = test system: patients; test: Clinical test, compatibility and sensory functions in patients; assay type: in vivo, human; settings: two female and three male patients; 10, 20, 40 and 60 mg oral
Method: as §1

[7] = test system: mouse; test: SD50, sedation symptoms, mouse; assay type: in vivo; settings: mouse, oral; dose at which 50% show inhibition of spontaneous motility, sedation, muscle relaxation, loss of gripping; read-out: SD50 (the source's name)
Description: b = Dose, at which at an average 50% of the mice show the following symptoms: inhibition of the spontaneous motility, sadation, muscle relaxation, loss of gripping and holding ability on a horizontal wire net.

[8] = test system: mouse; test: Prolongation of sleep induced by hexobarbital, mouse; assay type: in vivo; settings: ip; mouse, 15 mg/kg i.p.; 75 mg/kg hexobarbital; vs controls; read-out: % prolongation of sleep induced by hexobarbital by 15 mg/kg i.p.
Method: d = Percent prolongation of the duration of sleep of mice, which were administered 75 mg/kg hexobarbital, compared with the sleep duration of controls.

[9] = in vivo; settings: mouse
[10] = test system: carotid sinus relaxation reflex of the narcotized cat; test: Inhibition of the carotid sinus reflex, narcotized cat; assay type: in vivo; settings: Felis catus, iv; for ED30: 30% inhibition; for ED50: 50% inhibition
[11] = test system: mouse; test: PD50, rotating rod, mouse; assay type: in vivo; settings: ip; mouse, i.p.; dose at which an average of 50% of the mice fall from a rotating rod; read-out: PD50
Description: The centrally inhibiting effect of the piperazinyl uracils of the invention in the mouse are apparent from Table IV. […] The selective action of the compounds of the invention on the central blood pressure mechanism can be used advantageously in human therapy in the treatment of hypertonic diseases.
a = Dose, at which an average of 50% of the mice fall from a rotating rod.

[12] = test system: blood pressure increasing effect of adrenaline; test: Inhibition of the pressor effect of adrenaline, despinalized rat; assay type: in vivo; settings: iv, 0.001 mg/kg i.v. adrenaline, read-out: 50% inhibition of the press. effect after i.v. administration of adrenaline with
[13] = test system: blood pressure increasing effect of noradrenaline; test: Inhibition of the pressor effect of noradrenaline, despinalized rat; assay type: in vivo; settings: iv, 0.001 mg/kg i.v. noradrenaline, read-out: 50% inhibition of the press. effect after i.v. administration of noradrenaline with
[14] = test system: mouse; test: Inhibition of the motility in the tread wheel, mouse; assay type: in vivo; settings: ip, 3 h; mouse, 25 mg/kg i.p.; 5 mg/kg d-amphetamine-sulfate; 180 minutes; read-out: % Inhibition of the motility in the tread wheel by 25 mg/kg i.p.
[15] = test system: blood pressure, circulatory system and central nervous system; settings: recognized; cited from earlier work

Row | SMILES | ED30 [1] [mg/kg] | ED50 [1] [mg/kg] | lowering of the blood pressure by 30% by [2] | dose response of blood pressure lowering (Diagrams 1 and 2) ([3]; doses 0 to 60 mg, average starting RRs 171.9 mm Hg, RRd 95.3 mm Hg) | difference in the effect of a dose of 20 mg and a dose of 40 mg ([3]; patients, 20 mg vs 40 mg) | lowering of the systolic and diastolic blood pressure ([3]; two female and three male patients, 10, 20, 40 and 60 mg oral) | ED25 [4] [mg/kg] | solubility in aqueous acetone [5] | compatibility [6] | effect on perception and other sensory functions [6] | ED50 [7] [mg/kg] | change in vivo at 15 mg/kg [8] [%] | LD50 [9] [mg/kg] | ED30 [10] [mg/kg] | ED50 [10] [mg/kg] | ED50 [11] [mg/kg] | ED50 [12] [mg/kg] | ED50 [13] [mg/kg] | inhibition in vivo at 25 mg/kg [14] [%] | mechanism of phentolamine [15]
1 | COc1ccccc1N1CCN(CCCNc2cc(=O)n(C)c(=O)n2C)CC1 [Example 4, 1,3-Dimethyl-4-(γ-[4-(o-methoxyphenyl)piperazinyl-(1)]-propylamino)-uracil] | 0.14 | 0.65 | 0.71 | the blood pressure is progressively lowered in response to an increasing dose of the uracil compound | statistically confirmed | statistically significant lowering of the systolic and diastolic blood pressure | 2.4 | readily soluble in aqueous acetone | excellent compatibility | no adverse effect on perception and other sensory functions | 100 | 71 | 400 | 0.03 | 0.16 | 52 | 0.36 | 1.9 | 36 | 
2 | Cc1ccc(N(CC2=NCCN2)c2cccc(O)c2)cc1 [Phentolamine, 2-[N'-p-tolyl-N'-(m-hydroxyphenyl)-aminomethyl]-2-imidiozoline, reference compound] | 0.1 | 0.7 | 0.63 |  |  |  |  |  |  |  |  |  |  | 0.1 | 0.5 |  | 0.047 | 0.18 |  | specifically inhibiting the stimulating effect of adrenaline and noradrenaline, typical alpha-blocking agent
